Holding throughout (test): NCI tumour cell line growth inhibition, 48 h
The subject of assay [1] is LOX IMVI melanoma.
For assay [2], the system named is HOP-62 NSCLC.
For assay [3], the system named is K-562 leukemia.
In assay [4] the test system is MALME-3M melanoma.
Assay [5] relates to HOP-92 NSCLC.
Assay [6] concerns SF-295 CNS.
Assay [7] concerns NCI-H23 lung.
For assay [8], the system named is KM12 colon.
Assay [9] deals with MCF7 breast.
Assay [10] has as its system ACHN renal.

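96-well plates; 48 h exposure; 5 concentrations. Endpoints by linear interpolation between flanking doses. Not reached: highest tested concentration assigned. GI50 is the concentration that inhibits growth by half. The concentration for full growth arrest is given as TGI.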

Regarding `CC(CN)[C@@H]1CC[C@]2(CO)CC[C@]3(C)[C@H](CC[C@@H]4[C@@]5(C)CCC(NCCO)C(C)(C)[C@@H]5CC[C@]43C)[C@@H]12` (stereo not given in full), the GI50 in [1] is 1.64 µM; in assay [2], 2 µM; in assay [3] it was 1.54 µM; in [4], 1.62 µM; in [5] it was 1.3 µM; in [6], 1.74 µM. For the same compound, the GI50 in assay [7] is 2.29 µM; in assay [8] it was 1.9 µM; in [9], 1.78 µM; in assay [10], 5.2 µM. The TGI was determined as 3.12 µM in assay [1]; 4.08 µM in assay [2]; 3.35 µM in assay [3]; 3.16 µM in [4]; 2.94 µM in assay [5]; 3.4 µM in [6]. In addition, the TGI came to 5.47 µM in assay [7], 4.14 µM in [8], 3.62 µM in assay [9] and 17.6 µM in assay [10].

In the case of `CN1CCN(c2ccc(-c3cnc4c(-c5csc6ccccc56)cnn4c3)cc2)CC1`, the GI50 in assay [1] was 2.65 µM; in assay [2], 8.37 µM; in [3], 3.03 µM; in [4] it was 3.04 µM; in [5], over 15 µM; in assay [6] it was over 15 µM. The GI50 in assay [7] was 6.06 µM; in assay [8], 4.59 µM; in [9] it was 2.58 µM; in assay [10] it was 2.95 µM. Besides, the TGI was 5.4 µM in assay [1]; over 15 µM in [2]; over 15 µM in assay [3]; 7.68 µM in [4]; over 15 µM in assay [5]; over 15 µM in [6]. Also, the TGI in [7] is over 15 µM; in [8] it was over 15 µM; in assay [9], over 15 µM; in assay [10] it was 6.13 µM.

`Nc1ccn([C@H]2C[C@@H](O)[C@@H](CO)S2)c(=O)n1`: the GI50 is over 100 µM in assay [1]; over 32 µM in assay [2]; over 100 µM in assay [3]; over 100 µM in assay [4]; over 100 µM in assay [5]; over 100 µM in assay [6]. The GI50 in assay [7] was over 100 µM; in [8], over 100 µM; in assay [9], over 100 µM; in assay [10], 8.65 µM. In addition, the TGI in assay [1], in assay [2], in assay [3], in assay [4], in assay [5] and in [6] was over 100 µM each time. Moreover, the TGI in assay [7], in [8], in assay [9] and in assay [10] was over 100 µM in each case.

The values are drawn from PubChem BioAssay (NCI).
